Test results as given in paper PMC5519534, “AM-37 and ST-36 Are Small Molecule Bombesin Receptor Antagonists” (Frontiers in Endocrinology, 2017).
Marks after values point to notes of the source that are not given here. Where a SMILES comes first, the peptide text is derived from it. [ ]: non-standard residue; d: D form. Nle = CCCC[C@H](N)C(=O)O; βAla = NCCC(=O)O

What was measured:
[1] = system: EGFR; assay: EGFR tyrosine phosphorylation by western blot, NCI-H1299 cells transfected with BB2R; assay type: cell-based, human; settings: for Effect of pretreatment on BA1-induced EGFR tyrosine phosphorylation: 10 µM pretreatment, then 100 nM BA1
Description: (§1) The tyrosine phosphorylation of the EGFR and ERK was investigated by western blot. NSCLC cells transfected with BB1R, BB2R, and BRS-3 were placed in 10 cm dishes. When the cells were confluent, they were placed in SIT medium (RPMI-1640 containing 3 × 10^−8 M sodium selenite, 5 µg/ml bovine insulin, and 10 µg/ml apo-transferrin; Sigma-Aldrich, St. Louis, MO, USA) for 3 h. […] Cell extracts were made as described previously ([16]), and 600 µg of protein extract was immunoprecipitated with 4 µg anti-phosphotyrosine antibody (Becton Dickenson, USA). The immunoprecipitates were fractionated using a 4–20% polyacrylamide gel (Novex, San Diego, CA, USA). Proteins were transferred to a nitrocellulose membrane and incubated with 2 µg anti-EGFR or anti-ERK antibody (Cell Signaling Technologies, Danvers, MA, USA). After washing the blot, it was incubated with enhanced chemiluminescence detection reagent (Thermo Scientific) for 5 min and exposed to Biomax XAR film (Carestream, Rochester, NY, USA). The band intensity was determined using a Kodak image station 440 densitometer. Alternatively, 20 µg of protein extract was loaded onto polyacrylamide gels and after transfer to nitrocellulose, the blot was probed with anti-PY^1,068-EGFR, anti-EGFR, anti-PY^204ERK, or anti-ERK (Cell Signaling Technologies, Danvers, MA, USA).

[2] = system: ERK; assay: ERK tyrosine phosphorylation by western blot, NCI-H1299 cells transfected with BB2R; assay type: cell-based, human; settings: for Effect of pretreatment on BA1-induced ERK tyrosine phosphorylation: 10 µM pretreatment, then 100 nM BA1
Description: as §1

[3] = system: NSCLC cells; assay: Ionomycin-induced cytosolic Ca2+ in NSCLC cells (specificity); assay type: cell-based, human; settings: for Effect on the ability of ION to increase Ca2+: 5 µg/ml ionomycin
Description: (§2) The ability of AM-37, ST-36, AM-13, and AM-14 to function as BBR antagonists was investigated. NSCLC cells transfected with BB1R, BB2R, and BRS-3 were harvested and loaded with Fura-2AM (Calbiochem, La Jolla, CA, USA) as described previously ([16]). The excitation ratio was determined at 340 and 380 nm with an emission wavelength of 510 nm.

[4] = target: T1, BB2R (Homo sapiens, UniProt P30550); assay: Cytosolic Ca2+ (Fura-2AM) in NCI-H1299 cells transfected with BB2R; assay type: cell-based; settings: for Effect on the increase in cytosolic Ca2+ caused by BA1 / Effect on basal cytosolic Ca2+: 30 µM, BB2R-transfected cells
T1 construct: expressed in transfected cells; host or cells: NCI-H1299
Description: (§3) Non-small cell lung cancer cell line NCI-H1299 (ATCC, Manassas, VA, USA) was stably transfected with BB1R, BB2R, and BRS-3. The transfected cells were grown in RPMI-1640 containing 10% fetal bovine serum (FBS) with 0.3 mg/ml geneticin (Invitrogen, Grand Island, NY, USA). The transfected cells, which contained approximately 100,000 receptors/cell, were weekly split using trypsin/EDTA ([13]). In addition, lung cancer cell lines NCI-H727, H1299, and H1975 were purchased from ATCC and cultured in RPMI-1640, which contained 10% FBS. The cell types were derived from different human biopsy specimens. These studies were approved by the NIDDK biospecimens and biosafety committees.
as §2

[5] = target: T2, BRS-3 (Homo sapiens, UniProt P32247); assay: Inhibition of specific 125I-BA1 binding to BRS-3-transfected NCI-H1299 cells; settings: for Ki: inhibition of specific 125I-BA1 binding, BRS-3-transfected NCI-H1299 cells
T2 construct: expressed in transfected cells; host or cells: NCI-H1299
T2 sequence (P32247 1-399): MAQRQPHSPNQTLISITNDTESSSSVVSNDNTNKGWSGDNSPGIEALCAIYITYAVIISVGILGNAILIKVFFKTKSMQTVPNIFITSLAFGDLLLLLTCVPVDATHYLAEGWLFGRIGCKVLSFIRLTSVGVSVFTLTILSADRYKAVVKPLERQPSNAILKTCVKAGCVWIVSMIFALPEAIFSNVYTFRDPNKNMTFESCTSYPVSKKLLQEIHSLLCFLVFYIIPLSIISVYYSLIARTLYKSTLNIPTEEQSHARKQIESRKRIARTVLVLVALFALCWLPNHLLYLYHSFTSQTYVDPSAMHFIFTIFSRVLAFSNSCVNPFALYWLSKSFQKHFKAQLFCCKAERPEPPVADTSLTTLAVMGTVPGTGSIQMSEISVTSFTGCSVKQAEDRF
Description: as §3
(§4) The ability of AM-37, ST-36, AM-13, and AM-14 to inhibit specific ^125I-BA1 binding to NSCLC cells transfected stably with BB1R, BB2R, and BRS-3 was investigated. NSCLC cells were placed in 24 well plates. When confluent, the cells were washed three times with PBS. The cells were incubated with binding buffer (PBS containing 0.25% bovine serum albumin and 0.025% bacitracin, Sigma-Aldrich, St. Louis, MO, USA). Various concentrations of AM-37, ST-36, AM-13, or AM-14 were added to the cells for 10 min, followed by 100,000 cpm of ^125I-BA1 (0.16 nM) and incubated at 37°C for 30 min when equilibrium of binding was reached. The cells were rinsed three times with binding buffer for 2 min at 4°C. The cells that contained bound peptide dissolved in 0.2 N NaOH and counted in a Wallac 1470 γ-counter. The Ki was calculated as described ([15]).

[6] = target: T2, BRS-3; assay: Cytosolic Ca2+ (Fura-2AM) in NCI-H1299 cells transfected with BRS-3; assay type: cell-based; settings: for Effect on the increase in cytosolic Ca2+ caused by BA1 / Effect on basal cytosolic Ca2+: 30 µM, BRS-3-transfected cells
Description: as §3, §2

[7] = target: T1, BB2R; assay: Inhibition of specific 125I-BA1 binding to BB2R-transfected NCI-H1299 cells; settings: for Ki: inhibition of specific 125I-BA1 binding, BB2R-transfected NCI-H1299 cells
Description: Non-small cell lung cancer cell line NCI-H1299 (ATCC, Manassas, VA, USA) was stably transfected with BB1R, BB2R, and BRS-3. […] The transfected cells, which contained approximately 100,000 receptors/cell, were weekly split using trypsin/EDTA ([13]). […] The cell types were derived from different human biopsy specimens. These studies were approved by the NIDDK biospecimens and biosafety committees.
NSCLC cells were placed in 24 well plates. When confluent, the cells were washed three times with PBS. […] The cells were rinsed three times with binding buffer for 2 min at 4°C. […] The Ki was calculated as described ([15]).

[8] = target: T3, BB1R (Homo sapiens, UniProt P28336); assay: Cytosolic Ca2+ (Fura-2AM) in NCI-H1299 cells transfected with BB1R; assay type: cell-based; settings: for Effect on the increase in cytosolic Ca2+ caused by BA1 / Effect on basal cytosolic Ca2+: 30 µM, BB1R-transfected cells
T3 construct: expressed in transfected cells; host or cells: NCI-H1299
Description: as §3, §2

[9] = target: T3, BB1R; assay: Inhibition of specific 125I-BA1 binding to BB1R-transfected NCI-H1299 cells
Description: as §3, §4

[10] = system: NCI-H1299 cells; assay: MTT proliferation assay, NCI-H1299; assay type: cell-based, human; settings: for IC50: Homo sapiens, NCI-H1299, 48 h, MTT, 2 days, SIT medium
Description: The proliferation of NSCLC cells was investigated using the 3-(4,5-demethylthiazol-2-yl)-[…]-2H-tetrazolium bromide (MTT) assay as described previously ([16]). NCI-H727, H1299, and H1975 cells were placed in SIT medium and varying concentration of AM-37, ST-36, AM-13, or AM-14 added. After 2 days, 0.1% MTT solution (15 µl) was added. After 4 h, DMSO (150 µl) was added and the absorbance at 570 nm was determined.

[11] = target: T4, NTR (Homo sapiens, UniProt P30989); assay: Neurotensin-induced cytosolic Ca2+ in NSCLC cells (specificity); assay type: cell-based; settings: 10 nM neurotensin
T4 construct: endogenous in cells; host or cells: NCI-H1299 (transfected with bombesin receptors)

[12] = 30 µM small molecule followed by 10 nM BA1
[13] = 100 nM BA1, relative to control

T3 sequence (P28336 whole entry): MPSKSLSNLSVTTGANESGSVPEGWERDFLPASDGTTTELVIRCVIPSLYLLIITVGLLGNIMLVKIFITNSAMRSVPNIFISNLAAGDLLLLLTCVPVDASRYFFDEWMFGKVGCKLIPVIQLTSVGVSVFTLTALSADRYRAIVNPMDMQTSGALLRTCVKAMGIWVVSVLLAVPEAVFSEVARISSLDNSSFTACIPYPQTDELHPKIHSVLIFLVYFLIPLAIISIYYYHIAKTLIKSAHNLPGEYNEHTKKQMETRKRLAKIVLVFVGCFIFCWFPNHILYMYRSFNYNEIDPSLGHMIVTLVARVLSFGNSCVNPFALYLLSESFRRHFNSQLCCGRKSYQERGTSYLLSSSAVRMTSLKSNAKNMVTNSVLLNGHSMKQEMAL
T1 sequence (P30550 whole entry): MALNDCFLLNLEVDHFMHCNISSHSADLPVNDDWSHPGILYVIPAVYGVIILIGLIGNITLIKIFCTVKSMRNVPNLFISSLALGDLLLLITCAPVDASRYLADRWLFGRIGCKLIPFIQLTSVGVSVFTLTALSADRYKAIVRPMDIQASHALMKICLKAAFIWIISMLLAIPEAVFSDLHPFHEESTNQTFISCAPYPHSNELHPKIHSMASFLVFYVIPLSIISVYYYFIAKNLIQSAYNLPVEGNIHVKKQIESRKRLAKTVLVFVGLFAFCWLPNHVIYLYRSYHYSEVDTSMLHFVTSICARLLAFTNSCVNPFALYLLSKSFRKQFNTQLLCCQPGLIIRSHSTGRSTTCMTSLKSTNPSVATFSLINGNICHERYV
T4 sequence (P30989 whole entry): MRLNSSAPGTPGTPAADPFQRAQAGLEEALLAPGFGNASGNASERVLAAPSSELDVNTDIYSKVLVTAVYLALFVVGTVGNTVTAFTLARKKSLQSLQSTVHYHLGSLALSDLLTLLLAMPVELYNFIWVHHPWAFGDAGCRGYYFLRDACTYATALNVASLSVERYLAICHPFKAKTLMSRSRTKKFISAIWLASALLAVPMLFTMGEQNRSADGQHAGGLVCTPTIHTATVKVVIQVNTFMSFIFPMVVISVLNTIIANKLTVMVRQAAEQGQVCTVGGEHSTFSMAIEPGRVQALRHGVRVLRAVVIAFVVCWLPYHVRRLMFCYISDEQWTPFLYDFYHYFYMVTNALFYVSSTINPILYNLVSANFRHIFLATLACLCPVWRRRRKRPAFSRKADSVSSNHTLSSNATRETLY

Row | Increase in cytosolic Ca2+, BB2R [4, 12] | Ki [5] [µM] | Increase in cytosolic Ca2+, BRS-3 [6, 12] | Effect on the increase in cytosolic Ca2+ caused by BA1 ([6]; 10 nM BA1) | Effect on basal cytosolic Ca2+ [6] | Ki [7] [µM] | Increase in cytosolic Ca2+, BB1R [8, 12] | Ki [9] [µM] | Effect on the increase in cytosolic Ca2+ caused by BA1 ([4]; 10 nM BA1) | Effect on basal cytosolic Ca2+ [4] | IC50 [10] [µM] | Effect on the increase in cytosolic Ca2+ caused by BA1 ([8]; 10 nM BA1) | Effect on basal cytosolic Ca2+ [8] | Effect on the ability of NT to increase cytosolic Ca2+ [11] | SMILES | Effect of pretreatment on BA1-induced EGFR tyrosine phosphorylation [1] | Effect of pretreatment on BA1-induced ERK tyrosine phosphorylation [2] | Effect on the ability of ION to increase Ca2+ [3] | further results
1 | 0^a nM | 5.5 ± 0.6 | 0^a nM |  |  | 1.4 ± 0.2 | 1 ± 0.6^a nM | 3.6 ± 0.5 |  |  | 16 | blocked | no effect | no effect | COc1ccc(NC(=O)N[C@H](Cc2c[nH]c3ccccc23)C(=O)NCC2(c3cccnc3)CCCCC2)cc1 [AM-37, (R)-3-(1H-indol-3-yl)-2-[3-(4-methoxyphenyl)ureido]-N-[[1-(3-pyridinyl)cyclohexyl]methyl]propanamide] | addition of BA1 had little effect | decreased significantly |  | Effect on NCI-H1299 proliferation ([10]; 3 µM): little effect; Effect on NCI-H1299 proliferation ([10]; 30 µM): strongly inhibited
2 | 0^a nM | 10.8 ± 0.9 | 0^a nM | blocked | no effect | 6.9 ± 0.3 | 0^a nM | 7.9 ± 0.9 | blocked | no effect | 22 |  |  | no effect | COc1ccc(NC(=O)N[C@@H](Cc2c[nH]c3ccccc23)C(=O)NCC2(c3cccnc3)CCCCC2)cc1 [ST-36] | addition of BA1 had little effect | decreased significantly |  | IC50 [5]: 10.8 µM; IC50 [7]: 6.9 µM

Second part, the molecule before the results:

Row | SMILES | Increase in cytosolic Ca2+, BB2R [4, 12] | Ki [5] [µM] | Increase in cytosolic Ca2+, BRS-3 [6, 12] | Effect on the increase in cytosolic Ca2+ caused by BA1 ([6]; 10 nM BA1) | Effect on basal cytosolic Ca2+ [6] | Ki [7] [µM] | Increase in cytosolic Ca2+, BB1R [8, 12] | Ki [9] [µM] | Effect on the increase in cytosolic Ca2+ caused by BA1 ([4]; 10 nM BA1) | Effect on basal cytosolic Ca2+ [4] | IC50 [10] [µM] | Effect on the increase in cytosolic Ca2+ caused by BA1 ([8]; 10 nM BA1) | Effect on basal cytosolic Ca2+ [8] | Effect on the ability of NT to increase cytosolic Ca2+ [11] | Effect of pretreatment on BA1-induced EGFR tyrosine phosphorylation [1] | Effect of pretreatment on BA1-induced ERK tyrosine phosphorylation [2] | Effect on the ability of ION to increase Ca2+ [3] | further results
3 | COc1ccc(NC(=O)N[C@H](Cc2c[nH]c3ccccc23)C(=O)NCC2(c3ccc(F)cc3)CCCCC2)cc1 [AM-13, (R)-N-[[1-(4-fluorophenyl)cyclohexyl]methyl]-3-(1H-indol-3-yl)-2-[3-(4-methoxyphenyl)ureido]propanamide] | 5 ± 0.6^a nM | > 100 | 2 ± 0.3^a nM | partially blocked | no effect | 27 ± 4 | 7 ± 0.8^a nM | > 100 |  |  |  |  |  |  | BA1 increased strongly EGFR tyrosine phosphorylation | not | no effect | 
4 | COc1ccc(NC(=O)N[C@@H](Cc2c[nH]c3ccccc23)C(=O)NCC2(c3ccc(F)cc3)CCCCC2)cc1 [AM-14] | 6 + 0.5^a nM | > 100 | 3 + 0.4^a nM |  |  | 45 ± 8 |  | > 100 | partially blocked | no effect | > 50 | partially blocked | no effect |  | little effect | little effect | no effect | 
5 | CCCC[C@H](NC(=O)[C@H](Cc1ccccc1)NC(=O)[C@H](Cc1c[nH]cn1)NC(=O)CCNC(=O)[C@@H](NC(=O)[C@H](C)NC(=O)[C@H](Cc1c[nH]c2ccccc12)NC(=O)[C@H](CCC(N)=O)NC(=O)[C@H](N)Cc1ccc(O)cc1)C(C)C)C(N)=O [BA1, (D-Tyr^6, β-Ala^11, Phe^13, Nle^14)BB^6–14, reference compound] (H-[dY]QWAV[βAla]HF[Nle]-NH2; N-terminus and C-terminus assumed) |  |  |  |  |  |  |  |  |  |  |  |  |  |  |  |  |  | EGFR tyrosine phosphorylation [1, 13]: 326%; ERK tyrosine phosphorylation [2, 13]: 277%; Cytosolic Ca2+ reached after BA1 ([4]; 10 nM BA1, from 160 nM, Figure 2D): 186 nM; Increase in cytosolic Ca2+, BB2R ([4]; BA1 10 nM alone): 26.3 ± 1.7 nM; Cytosolic Ca2+ reached after BA1 ([6]; 10 nM BA1, from 170 nM, Figure 2G): 194 nM; Increase in cytosolic Ca2+, BRS-3 ([6]; BA1 10 nM alone): 24.4 ± 2.3 nM; Cytosolic Ca2+ reached after BA1 ([8]; 10 nM BA1, from 160 nM, within seconds, Figure 2A): 178 nM; Increase in cytosolic Ca2+, BB1R ([8]; BA1 10 nM alone): 18.5 ± 1.1 nM
6 | C[C@H](CCC(=O)O)C[C@H](C)C[C@H](C)C(=O)/C=C(\O)[C@H](C)C[C@H](C)C/C=C/[C@@H](C)[C@@H](O)[C@@H](C)[C@@H](O)C[C@@H]1CC[C@@](C)([C@H]2CC[C@@](C)([C@@H](C)O)O2)O1 [ionomycin, reference compound] |  |  |  |  |  |  |  |  |  |  |  |  |  |  |  |  |  | Effect on cytosolic Ca2+ ([3]; 5 µg/ml): strongly increased
